{
  "source": "patent US20060216726A1",
  "about": "“Method for optimizing thiopurine efficacy and toxicity using mass spectrometry” (Prometheus Laboratories Inc., priority 2004, published 2006)",
  "origin": "cited, not measured here",
  "settings": "patients with inflammatory bowel disease, azathioprine",
  "data": [
    {"substance": "6-thioguanine nucleotide [6-TGN]", "values": [
      {"measurement": "Therapeutic threshold associated with efficacy", "result": "> 235", "unit": "pmol/8×10^8 cells"}
    ]}
  ]
}
